Test systems include 786-0; A498; CAKI-1; CCRF-CEM; COLO 205; DU-145; EKVX; HCT-116; HCT-15; IGROV-1; LOX IMVI; MCF7; MDA-N; OVCAR-4; SN12C; SNB-19; SR; T47D; UACC-257; UO-31.
Holding throughout (assay): inhibition of tumour cell growth, NCI panel, 48 h

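Values below derive from 48-hour exposures of cells grown in 96-well plates, with endpoints linearly interpolated between the two concentrations bracketing the appropriate inhibition level. At the GI50, growth is halved.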 Calls of active or inactive are those of the source. No stated cut-off is given here; in the data, active = GI50 up to about 1.1 µM and inactive = higher.

Take `C=CCNS(=O)(=O)c1ncnc2[nH]cnc12`: the GI50 with 786-0 was > 100 µM (inactive); in the experiment on A498, > 100 µM (inactive); with CAKI-1, 26.2 µM (inactive); in the experiment with CCRF-CEM it was > 100 µM (inactive); in the experiment on COLO 205 it was > 100 µM (inactive); in the experiment with DU-145, > 100 µM (inactive). Also, the GI50 is > 100 µM (inactive) in the experiment on EKVX; > 100 µM (inactive) in the experiment with HCT-116; more than 100 µM in the experiment with HCT-15; > 100 µM (inactive) with IGROV-1; 67.9 µM (inactive) in the experiment with LOX IMVI; > 100 µM (inactive) with MCF7. For the same molecule, the GI50 in the experiment with MDA-N was 82.8 µM (inactive); in the experiment on OVCAR-4 it was > 100 µM (inactive); in the experiment on SN12C, 55.6 µM (inactive); with SNB-19 it was > 100 µM (inactive); in the experiment with SR it was 69.8 µM (inactive); in the experiment on T47D, > 100 µM (inactive). Further, the GI50 in the experiment with UACC-257 and with UO-31 was > 100 µM (inactive) throughout.

With `CC1(C)CCC[C@@]2(C)C1C(=O)[C@@H]1O[C@]1(C)[C@@H]2CO` (stereo not given in full), the GI50 in the experiment with 786-0 was 23.2 µM (inactive); with A498, 38.6 µM (inactive); in the experiment with CCRF-CEM, 11.4 µM (inactive); in the experiment with COLO 205, 18.4 µM (inactive); in the experiment on DU-145, 38.5 µM (inactive); in the experiment on EKVX it was 31.6 µM (inactive). The GI50 is 19.7 µM (inactive) with HCT-116; 38 µM with HCT-15; 45.8 µM (inactive) in the experiment with IGROV-1; 19.8 µM (inactive) in the experiment with LOX IMVI; > 100 µM (inactive) in the experiment with MCF7; 23.5 µM (inactive) with MDA-N. Besides, the GI50 with OVCAR-4 is 24.4 µM (inactive); with SN12C it was 25.5 µM (inactive); with SNB-19, 24.4 µM (inactive); with SR, 0.587 µM (active); in the experiment with T47D, 26.7 µM (inactive); in the experiment on UACC-257 it was 43.8 µM (inactive). Besides, the GI50 with UO-31 is 53.7 µM (inactive).

Consider `CCOC(=O)Nc1cc(NC(/C=N/NC(C)=O)C(=O)OCC)c(OC)cc1NC(C)=O` (stereo not given), for which the GI50 in the experiment on 786-0, in the experiment with A498, in the experiment on CAKI-1, with CCRF-CEM, in the experiment with COLO 205 and in the experiment with DU-145 was > 100 µM (inactive) each time. The GI50 with EKVX is > 100 µM (inactive); with HCT-116 it was > 100 µM (inactive); in the experiment on HCT-15, more than 100 µM; in the experiment on IGROV-1, > 100 µM (inactive); in the experiment on MCF7 it was > 100 µM (inactive); in the experiment with MDA-N it was > 100 µM (inactive). The GI50 in the experiment on OVCAR-4, with SN12C, with SNB-19, in the experiment with SR, in the experiment on T47D and in the experiment on UACC-257 was > 100 µM (inactive) each time. Also, the GI50 with UO-31 was > 100 µM (inactive).

Take `CCc1cccc(CC)c1NC(=S)NC(=O)c1ccc(Br)cc1`: the GI50 was 30.1 µM (inactive) in the experiment on 786-0; 33.6 µM (inactive) in the experiment on A498; 29.6 µM (inactive) in the experiment with CAKI-1; 17.7 µM (inactive) in the experiment on CCRF-CEM; 18.1 µM (inactive) in the experiment on COLO 205; 75.7 µM (inactive) in the experiment on DU-145. The GI50 in the experiment on EKVX is 23.6 µM (inactive); with HCT-116 it was 28.8 µM (inactive); in the experiment with HCT-15, 33.7 µM; in the experiment with IGROV-1, 27.9 µM (inactive); in the experiment on LOX IMVI, > 39.4 µM (inactive); in the experiment with MCF7 it was 20.6 µM (inactive). For the same molecule, the GI50 is 30.4 µM (inactive) in the experiment on MDA-N; 7.48 µM (inactive) in the experiment on OVCAR-4; 32.6 µM (inactive) with SN12C; 40.9 µM (inactive) in the experiment on SNB-19; 20.3 µM (inactive) in the experiment with SR; 21.9 µM (inactive) in the experiment with T47D. Also, the GI50 with UACC-257 was 32.2 µM (inactive); in the experiment on UO-31, 26.3 µM (inactive).

As for `Oc1ccc(-c2nn3c(CCCCCCCCc4nnc5sc(-c6ccc(O)cc6)nn45)nnc3s2)cc1`, the GI50 in the experiment with 786-0, with A498, with CAKI-1, with CCRF-CEM, in the experiment with COLO 205 and in the experiment with DU-145 was > 100 µM (inactive) each time. The GI50 in the experiment on EKVX was > 100 µM (inactive); in the experiment with HCT-116, > 100 µM (inactive); in the experiment on HCT-15 it was more than 100 µM; with LOX IMVI it was > 100 µM (inactive); in the experiment on MCF7 it was > 100 µM (inactive); with MDA-N, > 100 µM (inactive). Further, the GI50 in the experiment on OVCAR-4 was > 100 µM (inactive); in the experiment on SN12C, > 100 µM (inactive); in the experiment on SNB-19, > 100 µM (inactive); in the experiment with SR it was > 100 µM (inactive); in the experiment on T47D, 55.1 µM (inactive); in the experiment on UACC-257, > 100 µM (inactive). The GI50 in the experiment with UO-31 was > 100 µM (inactive).

Turning to `C=C(C)C(O)C(O)c1c(OC)ccc2ccc(=O)oc12` (stereo not given), the GI50 in the experiment on 786-0, in the experiment with A498, in the experiment on CAKI-1, in the experiment on CCRF-CEM, in the experiment with COLO 205 and in the experiment on DU-145 was > 100 µM (inactive) each time. The GI50 with EKVX was > 100 µM (inactive); with HCT-116, > 100 µM (inactive); in the experiment on HCT-15, more than 100 µM; in the experiment with IGROV-1, > 100 µM (inactive); in the experiment with MCF7, > 100 µM (inactive); in the experiment on MDA-N, > 100 µM (inactive). Moreover, the GI50 with OVCAR-4, in the experiment with SN12C, in the experiment on SNB-19, in the experiment on SR, with T47D and in the experiment with UACC-257 was > 100 µM (inactive) throughout. In the experiment on UO-31, the GI50 was > 100 µM (inactive).

On to `CC(CN(C)C)C(O)(c1ccccc1)c1ccccc1` (stereo not given), for which the GI50 in the experiment with 786-0, in the experiment with A498, in the experiment with CAKI-1, with CCRF-CEM, in the experiment with COLO 205 and in the experiment on DU-145 was > 100 µM (inactive) throughout. Also, the GI50 with EKVX was > 100 µM (inactive); with HCT-116 it was > 100 µM (inactive); with HCT-15 it was more than 100 µM; with IGROV-1 it was > 100 µM (inactive); in the experiment with LOX IMVI, > 100 µM (inactive); with MCF7 it was > 100 µM (inactive). Also, the GI50 in the experiment with MDA-N, in the experiment on OVCAR-4, in the experiment with SN12C, with SNB-19, in the experiment on SR and in the experiment on T47D was > 100 µM (inactive) each time. For the same molecule, the GI50 with UACC-257 and with UO-31 was > 100 µM (inactive) throughout.

As for `N#CC(C#N)=C(N)/C(C#N)=C/c1ccc(O)c(O)c1`, the GI50 with 786-0 is > 91.8 µM (inactive); in the experiment on A498, > 100 µM (inactive); with CAKI-1 it was > 100 µM (inactive); in the experiment with CCRF-CEM, 19.8 µM (inactive); with COLO 205 it was > 65.2 µM (inactive); in the experiment on DU-145, > 100 µM (inactive). Moreover, the GI50 in the experiment with EKVX is > 70.3 µM (inactive); in the experiment on HCT-116 it was 54 µM (inactive); with HCT-15, 44.5 µM; in the experiment on IGROV-1, > 55.1 µM (inactive); in the experiment on LOX IMVI, 52.8 µM (inactive); in the experiment on MCF7, 75.2 µM (inactive). The GI50 in the experiment with MDA-N is > 100 µM (inactive); with OVCAR-4, 44.8 µM (inactive); in the experiment on SNB-19 it was > 92.5 µM (inactive); in the experiment on SR, 29.3 µM (inactive); with T47D, 53.7 µM (inactive); with UACC-257 it was > 95.5 µM (inactive). The GI50 in the experiment on UO-31 was 37.2 µM (inactive).
